Each structure is given as a SMILES string. Square brackets hold non-standard residues; d marks the D form. Peptide text beside a SMILES is read from it. dNMeW = CN[C@H](Cc1c[nH]c2ccccc12)C(=O)O; NMeF = CN[C@@H](Cc1ccccc1)C(=O)O; NMeK = CN[C@@H](CCCCN)C(=O)O

The nature of data set [1]: Oral bioavailability in rat at 10 mg/kg. Conditions: in vivo. Format: ADME, organism-based.
Data set [2] is described as follows: Efflux ratio of apparent permeability from basolateral to apical over apical to basolateral side in human Caco2 cells. The format is ADME, cell-based. The settings on record: Caco-2. (Passage across Caco-2 layers is used to estimate intestinal permeability.)

Take `C[C@@H](O)[C@@H]1NC(=O)[C@H](CCCCN)N(C)C(=O)[C@@H](Cc2c[nH]c3ccccc23)N(C)C(=O)[C@H](Cc2ccccc2)NC(=O)[C@@H]2CCCN2C(=O)[C@H](Cc2ccccc2)N(C)C1=O` (cyclo(F[dNMeW][NMeK]T[NMeF]P)): in data set [1], the bioavailability (in general, the share of a dose that reaches the circulation, judged against a reference dose that is usually intravenous) was found to be 10%. Turning to `C[C@@H]1NC(=O)[C@H](C)N(C)C(=O)[C@H](C)N(C)C(=O)[C@H](C)NC(=O)[C@@H](C)N(C)C(=O)[C@H](C)N(C)C1=O`, the efflux ratio (usually a quotient of directional permeabilities that is used to spot active efflux) in data set [2] was found to be 0.08. As to `C[C@@H]1NC(=O)[C@H](C)NC(=O)[C@@H](C)N(C)C(=O)[C@H](C)NC(=O)[C@H](C)N(C)C(=O)[C@H](C)NC1=O`, the efflux ratio in data set [2] came out at 1.93. As to `C[C@@H]1NC(=O)[C@H](C)N(C)C(=O)[C@H](C)N(C)C(=O)[C@H](C)NC(=O)[C@H](C)N(C)C(=O)[C@@H](C)N(C)C1=O`, the efflux ratio in data set [2] was 1.97. Still for that read-out and setting: as for `C[C@@H]1NC(=O)[C@H](C)NC(=O)[C@@H](C)N(C)C(=O)[C@H](C)N(C)C(=O)[C@H](C)NC(=O)[C@H](C)NC1=O`, the figure is 2.05.

(Values after ChEMBL document CHEMBL4219041, “Improving oral bioavailability of cyclic peptides by N-methylation” (Bioorg Med Chem, 2018).)
